Test results: PubChem BioAssay AID296 (DTP/NCI, 2004)
Values joined by “and” are separate entries in the source; they are usually repeats but may differ in a detail not shown here. Equal entries are not always repeated. Results filed as inconclusive are left out.

Test system: MX-1 breast xenograft, nude mice, tumor weight T/C
Assay: NCI In Vivo Anticancer Drug Screen. Data for tumor model Human Mammary Carcinoma MX-1 Xenograft (intrarenal inoculation) in NU/NU Swiss (nude) mice
Conditions: endpoint: mean tumor weight change, higher = larger tumour
How it was run: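 Tumor-bearing mice were treated with test compound alongside a vehicle-treated control group. Survival or tumor size was measured, and activity is expressed as the treated-group value divided by the control-group value.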

[1] = dose: 300.0 mg/kg/injection, schedule: Q04DX003 (sc), vehicle: Klucel (hydroxypropylcellulose) (HPC)
[2] = dose: 300.0 mg/kg/injection, schedule: Q04DX003 (sc), vehicle: saline with Tween-80
[3] = dose: 100.0 mg/kg/injection, schedule: Q01DX010 (sc), vehicle: saline
[4] = dose: 600.0 mg/kg/injection, schedule: Q04DX003 (sc), vehicle: saline
[5] = dose: 1200.0 mg/kg/injection, schedule: Q04DX003 (sc), vehicle: saline
[6] = dose: 2400.0 mg/kg/injection, schedule: Q04DX003 (sc), vehicle: saline
[7] = dose: 50.0 mg/kg/injection, schedule: Q01DX010 (sc), vehicle: saline
[8] = dose: 100.0 mg/kg/injection, schedule: Q04DX003 (sc), vehicle: saline
[9] = dose: 200.0 mg/kg/injection, schedule: Q04DX003 (sc), vehicle: saline with Tween-80
[10] = dose: 200.0 mg/kg/injection, schedule: Q04DX003 (sc), vehicle: saline
[11] = dose: 400.0 mg/kg/injection, schedule: Q04DX003 (sc), vehicle: saline with Tween-80
[12] = dose: 400.0 mg/kg/injection, schedule: Q04DX003 (sc), vehicle: saline
[13] = dose: 75.0 mg/kg/injection, schedule: Q04DX003 (sc), vehicle: Klucel (hydroxypropylcellulose) (HPC)
[14] = dose: 25.0 mg/kg/injection, schedule: Q04DX003 (sc), vehicle: saline with Tween-80
[15] = dose: 200.0 mg/kg/injection, schedule: Q01DX010 (sc), vehicle: saline with Tween-80
[16] = dose: 400.0 mg/kg/injection, schedule: Q01DX010 (sc), vehicle: saline with Tween-80

Cc1ccc(C2NC(=S)N3C(c4ccc(C)cc4)NC(=S)N23)cc1 (configuration not stated)
T/C [1]: 91 % of control
T/C (dose: 600.0 mg/kg/injection, schedule: Q04DX003 (sc), vehicle: Klucel (hydroxypropylcellulose) (HPC)): 112 % of control
T/C (dose: 2400.0 mg/kg/injection, schedule: Q04DX003 (sc), vehicle: Klucel (hydroxypropylcellulose) (HPC)): 89 % of control

CC(=O)Oc1ccccc1O
T/C (dose: 75.0 mg/kg/injection, schedule: Q04DX003 (sc), vehicle: saline + Tween-80 + alcohol): 89 % of control
T/C (dose: 150.0 mg/kg/injection, schedule: Q04DX003 (sc), vehicle: saline + Tween-80 + alcohol): 117 % of control
T/C (dose: 600.0 mg/kg/injection, schedule: Q04DX003 (sc), vehicle: saline + Tween-80 + alcohol): 68 % of control

NC(=S)N/N=C/c1ccc(OC(=O)COc2ccccc2)cn1
T/C [2]: 101 % of control
T/C (dose: 600.0 mg/kg/injection, schedule: Q04DX003 (sc), vehicle: saline with Tween-80): 103 % of control
T/C (dose: 1200.0 mg/kg/injection, schedule: Q04DX003 (sc), vehicle: saline with Tween-80): 76 % of control

Cc1cn(C2CC3[O][Sn]([c]4ccccc4)([c]4ccccc4)[O]CC3O2)c(=O)[nH]c1=O (configuration not stated)
T/C (dose: 25.0 mg/kg/injection, schedule: Q01DX010 (sc), vehicle: saline): 93 % of control
T/C [3]: 93 % of control
T/C (dose: 200.0 mg/kg/injection, schedule: Q01DX010 (sc), vehicle: saline): 115 % of control
T/C [4]: 86 % of control
T/C [5]: 107 % of control
T/C [6]: 64 % of control

C=CC(=O)NCNC(=O)C=C
T/C [7]: 82 % of control
T/C [3]: 91 % of control

Nc1ncnc2c1ncn2C1OC(CO)C(O)C1O (configuration not stated)
T/C (dose: 38.0 mg/kg/injection, schedule: Q04DX003 (sc), vehicle: saline): 84 % of control
T/C [8]: 120 % of control
T/C [9]: 100 % of control
T/C [10]: 72 % of control and 85 % of control
T/C [11]: 84 % of control
T/C [12]: 91 % of control
T/C (dose: 800.0 mg/kg/injection, schedule: Q04DX003 (sc), vehicle: saline with Tween-80): 217 % of control
T/C (dose: 1600.0 mg/kg/injection, schedule: Q04DX003 (sc), vehicle: saline with Tween-80): 104 % of control
T/C (dose: 1600.0 mg/kg/injection, schedule: Q04DX003 (sc), vehicle: saline): 52 % of control

CONc1ccn(C2OC(CO)C(O)C2O)c(=O)n1 (configuration not stated)
T/C (dose: 300.0 mg/kg/injection, schedule: Q04DX003 (sc), vehicle: saline): 86 % of control
T/C [4]: 74 % of control
T/C [5]: 107 % of control
T/C [6]: 77 % of control

OCCN1CCN(CC/C=C2/c3ccccc3Sc3ccc(C(F)(F)F)cc32)CC1
T/C (dose: 30.0 mg/kg/injection, schedule: Q04DX003 (sc), vehicle: saline): 65 % of control
T/C (dose: 60.0 mg/kg/injection, schedule: Q04DX003 (sc), vehicle: saline): 43 % of control
T/C (dose: 120.0 mg/kg/injection, schedule: Q04DX003 (sc), vehicle: saline): 29 % of control and 43 % of control
T/C (dose: 240.0 mg/kg/injection, schedule: Q04DX003 (sc), vehicle: saline): 17 % of control and 21 % of control

CCC1=C[C@H]2CN(CCc3c([nH]c4ccccc34)[C@@](C(=O)OC)(c3cc4c(cc3OC)N(C)[C@H]3[C@@](O)(C(=O)OC)[C@H](OC(C)=O)[C@]5(CC)C=CCN6CC[C@]43[C@@H]65)C2)C1
T/C (dose: 3.0 mg/kg/injection, schedule: Q04DX003 (sc), vehicle: water): 108 % of control
T/C (dose: 6.0 mg/kg/injection, schedule: Q04DX003 (sc), vehicle: water): 84 % of control
T/C (dose: 12.0 mg/kg/injection, schedule: Q04DX003 (sc), vehicle: water): 56 % of control

CC(C)CCCCCCCCCCCCC(=O)NCC(=O)NC1C(O)C(O)C(Nc2ncnc3nc[nH]c23)OC1C(O)CO (configuration not stated)
T/C (dose: 0.31 mg/kg/injection, schedule: Q01DX010 (sc), vehicle: saline): 158 % of control
T/C (dose: 0.4 mg/kg/injection, schedule: Q01DX010 (sc), vehicle: saline): 194 % of control
T/C (dose: 0.63 mg/kg/injection, schedule: Q01DX010 (sc), vehicle: saline): 105 % of control
T/C (dose: 0.8 mg/kg/injection, schedule: Q01DX010 (sc), vehicle: saline): 93 % of control
T/C (dose: 1.25 mg/kg/injection, schedule: Q01DX010 (sc), vehicle: saline): 80 % of control
T/C (dose: 1.6 mg/kg/injection, schedule: Q01DX010 (sc), vehicle: saline): 40 % of control

CC(C)NC(=O)N(CCCCBr)N=O
T/C [13]: 42 % of control and 47 % of control
T/C [1]: 40 % of control

COc1nc(=O)n(C2C=CC(=O)O2)cc1F (configuration not stated)
T/C [13]: 116 % of control

C(CSC1=NCCN1)CSC1=NCCN1
T/C [7]: 103 % of control

CN(C=O)C(C(=O)Nc1cccc2c(OC(=O)C(N(C)C=O)(N(C)C=O)N(C)C=O)c(N=Nc3ccc(S(=O)(=O)Nc4nccs4)cc3)cc(N=Nc3ccc(S(=O)(=O)Nc4nccs4)cc3)c12)(N(C)C=O)N(C)C=O (tested in a mixture with another compound)
T/C [2]: 108 % of control
T/C (dose: 2400.0 mg/kg/injection, schedule: Q04DX003 (sc), vehicle: saline with Tween-80): 90 % of control

CCOC(=O)Nc1cc2c(c(N)n1)N=C(c1ccccc1)CN2
T/C (dose: 6.25 mg/kg/injection, schedule: Q04DX003 (sc), vehicle: saline with Tween-80): 80 % of control
T/C (dose: 12.5 mg/kg/injection, schedule: Q04DX003 (sc), vehicle: saline with Tween-80): 83 % of control
T/C [14]: 68 % of control

Cc1ccc(S(=O)(=O)NC(=S)S)cc1
T/C [15]: 98 % of control
T/C [16]: 93 % of control

O=CC=O
T/C (dose: 50.0 mg/kg/injection, schedule: Q01DX010 (sc), vehicle: saline with Tween-80): 109 % of control
T/C (dose: 100.0 mg/kg/injection, schedule: Q01DX010 (sc), vehicle: saline with Tween-80): 74 % of control
T/C [15]: 100 % of control
T/C [16]: 60 % of control

Nc1nc2n[nH]nc2c(=O)[nH]1
T/C (dose: 75.0 mg/kg/injection, schedule: Q04DX003 (ip), vehicle: suspension in saline): 22 % of control and 46 % of control
T/C (dose: 75.0 mg/kg/injection, schedule: Q04DX003 (sc), vehicle: suspension in saline): 35 % of control
T/C (dose: 150.0 mg/kg/injection, schedule: Q04DX003 (ip), vehicle: suspension in saline): 6 % of control
T/C (dose: 150.0 mg/kg/injection, schedule: Q04DX003 (sc), vehicle: suspension in saline): 18 % of control
T/C (dose: 300.0 mg/kg/injection, schedule: Q04DX003 (ip), vehicle: suspension in saline): 1 % of control
T/C (dose: 600.0 mg/kg/injection, schedule: Q04DX003 (sc), vehicle: suspension in saline): -77 % of control

CCN(CC)CCCNc1nccc2c(C)c3[nH]c4ccncc4c3cc12
T/C (dose: 5.0 mg/kg/injection, schedule: Q01DX010 (sc), vehicle: other): 166 % of control
T/C (dose: 10.0 mg/kg/injection, schedule: Q01DX010 (sc), vehicle: other): 88 % of control

Nc1cc2c3c(cccc3c1)C(=O)N(CCN1CCCC1)C2=O
T/C [14]: 60 % of control
T/C (dose: 50.0 mg/kg/injection, schedule: Q04DX003 (sc), vehicle: saline with Tween-80): 60 % of control
T/C (dose: 100.0 mg/kg/injection, schedule: Q04DX003 (sc), vehicle: saline with Tween-80): 120 % of control
T/C [9]: 119 % of control

CCCCCCCC(=O)OCC(=O)[C@]1(O)Cc2c(O)c3c(c(O)c2[C@@H](OC2CC(N)C(O)C(C)O2)C1)C(=O)c1c(OC)cccc1C3=O (some centres not stated)
T/C (dose: 4.0 mg/kg/injection, schedule: Q01DX010 (sc), vehicle: suspension in saline): 17 % of control
T/C (dose: 8.0 mg/kg/injection, schedule: Q01DX010 (sc), vehicle: suspension in saline): 2 % of control

CCC(C(=O)O)C(=O)O.[NH-]CC1CCCC[N-]1.[Pt+2]
T/C [8]: 51 % of control
T/C [9]: -98 % of control
T/C [10]: 20 % of control
T/C [2]: -98 % of control
T/C (dose: 300.0 mg/kg/injection, schedule: Q04DX003 (sc), vehicle: suspension in saline): 14 % of control and 26 % of control
T/C [11]: -100 % of control
T/C [12]: 2 % of control
T/C (dose: 400.0 mg/kg/injection, schedule: Q04DX003 (sc), vehicle: suspension in saline): 28 % of control and 32 % of control
T/C (dose: 500.0 mg/kg/injection, schedule: Q04DX003 (sc), vehicle: saline with Tween-80): -100 % of control
T/C (dose: 500.0 mg/kg/injection, schedule: Q04DX003 (sc), vehicle: suspension in saline): 3 % of control and 20 % of control
